Measured values reported in patent publication US20200048237A1, “A Free Base Oxazine Derivative in Crystalline Form” (NOVARTIS AG, priority 2017, published 2020).

Experiments:
[1] = Chemical stability of crystalline Form A exposed to high temperature and/or humidity (UPLC purity, XRPD solid form); type: physicochemical
Description: The stability of crystalline Form A was tested by exposing the crystalline material to high temperature and/or humidity for at least three weeks. After storage at high temperature and/or humidity, bulk crystalline material was sampled and dissolved in acetonitrile:water (80:20) and the purity analysed in a Waters Aquity UPLC using the following conditions: […]

[2] = Drug-drug interaction study in healthy volunteers: plasma PK of Compound 1 alone and with strong CYP3A4 inducer rifampicin; type: in vivo, human; settings: with rifampicin 600 mg q.d. vs Compound 1 alone
[3] = Drug-drug interaction study in healthy volunteers: plasma PK of Compound 1 alone and with strong CYP3A4 inhibitor itraconazole; type: in vivo, human; settings: with itraconazole 200 mg q.d. vs Compound 1 alone

## C[C@@]1(c2nc(NC(=O)c3ncc(C(F)(F)F)cc3Cl)ccc2F)CO[C@@](C)(C(F)(F)F)C(N)=N1 [Form A, N-(6-((3R,6R)-5-amino-3,6-dimethyl-6-(trifluoromethyl)-3,6-dihydro-2H-1,4-oxazin-3-yl)-5-fluoropyridin-2-yl)-3-chloro-5-(trifluoromethyl)picolinamide]
[1]; RT, exposure time 0
  Solid State Form: Crystalline
[1]; compared with Form B, hydrate Form HA and amorphous form
  Thermodynamic stability among polymorphs: most thermodynamically stable polymorph

## C[C@@]1(c2nc(NC(=O)c3ncc(C(F)(F)F)cc3Cl)ccc2F)CO[C@@](C)(C(F)(F)F)C(N)=N1 [Compound 1, N-(6-((3R,6R)-5-amino-3,6-dimethyl-6-(trifluoromethyl)-3,6-dihydro-2H-1,4-oxazin-3-yl)-5-fluoropyridin-2-yl)-3-chloro-5-(trifluoromethyl)picolinamide]
[2]
  Decrease of mean AUC of Compound 1: 5-6 fold
  Decrease of mean Cmax of Compound 1: 2.5 fold
[3]
  Increase of mean AUC of Compound 1: 2-3 fold
  Increase of mean Cmax of Compound 1: 25%

## C[C@@]1(c2nc(NC(=O)c3ncc(C(F)(F)F)cc3Cl)ccc2F)CO[C@@](C)(C(F)(F)F)C(N)=N1 [Form B, N-(6-((3R,6R)-5-amino-3,6-dimethyl-6-(trifluoromethyl)-3,6-dihydro-2H-1,4-oxazin-3-yl)-5-fluoropyridin-2-yl)-3-chloro-5-(trifluoromethyl)picolinamide]
[1]; same conditions as Table 12 (high temperature and/or humidity)
  Solid form stability by XRPD analysis: conversion into Form A occurred
